Data: patent US12178880B2, “Antibody-drug conjugate, and intermediate thereof, preparation method therefor, and application thereof” (SHANGHAI FUDAN-ZHANGJIANG BIO-PHARMACEUTICAL CO., LTD., priority 2020, dated 2024)
Read-outs that look alike come from different tables or passages of the source. *1 amine or outer side, *2 acyl side, *3 side chain or, on linkers, in order; H or OH if unused. Where a SMILES comes first, the peptide text is derived from it. [ ]: non-standard residue; d: D form. The star is where a group is joined. X1 = CC[C@@]1(O)C(=O)OCc2c1cc1n(c2=O)Cc2c-1nc1cc(F)c(C)c3c1c2[C@H](N*)CC3; Hexanoyl(6-maleimido) = O=C1C=CC(=O)N1CCCCCC(=O)*; NHCH2OCH2CO = O=C(COCN[*:1])[*:2]

What was measured:
tissue proteinase B = tissue proteinase B (Homo sapiens, UniProt P07858); experiment: In vitro enzyme digestion of linker-drug conjugates; format: biochemical; settings: for speed of enzyme digestion (in words): pH 5.0 to 7.0
Protocol: The linker-drug conjugate (LE14 and GGFG-Dxd) was co-incubated with tissue proteinase B in three different pH (5.0, 6.0, 7.0) buffers. Samples were taken at different time points and entered into a high-performance liquid chromatography-mass spectrometry instrument. The external standard method (with DXD as the external standard) was used to determine the release percentage of the drug.

SK-BR-3 cell line = experiment: Killing activity of FDA026-LS13 before and after enzyme digestion; format: cell-based; settings: 144 hours
Protocol: SK-BR-3 cell line was selected as the experimental cells. After the sample was incubated in tissue proteinase B system (100 mM sodium acetate-acetic acid buffer, 4 mM dithiothreitol, pH 5.0) at 37° C. for 4 hours, the obtained sample was diluted with culture medium to different concentrations. 8 concentrations (1.5 to 10-fold dilution) were set from 70 nM to 0.003 nM of SN-38 concentration. […] The IC50 value was calculated by reading the […] after chemical luminescent staining with CellTiter-Glo® Luminescent Cell Viability Assay.

[1] = Coupling of linker-drug conjugates with other antibodies; format: physicochemical

| Compound | Percentage of drug release in the sample (tissue proteinase B; pH 5.0, 0 h) | Percentage of drug release in the sample (tissue proteinase B; pH 5.0, 1 h) | Percentage of drug release in the sample (tissue proteinase B; pH 5.0, 2 h) | Percentage of drug release in the sample (tissue proteinase B; pH 5.0, 3 h) | Percentage of drug release in the sample (tissue proteinase B; pH 5.0, 4 h) | Percentage of drug release in the sample (tissue proteinase B; pH 5.0, 5 h) | Percentage of drug release in the sample (tissue proteinase B; pH 5.0, 6 h) | speed of enzyme digestion (in words) (tissue proteinase B) | Percentage of drug release in the sample (tissue proteinase B; pH 6.0, 0 h) | Percentage of drug release in the sample (tissue proteinase B; pH 6.0, 1 h) | Percentage of drug release in the sample (tissue proteinase B; pH 6.0, 2 h) | Percentage of drug release in the sample (tissue proteinase B; pH 6.0, 3 h) | Percentage of drug release in the sample (tissue proteinase B; pH 6.0, 4 h) | Percentage of drug release in the sample (tissue proteinase B; pH 6.0, 5 h) | Percentage of drug release in the sample (tissue proteinase B; pH 6.0, 6 h) | Percentage of drug release in the sample (tissue proteinase B; pH 7.0, 0 h) | Percentage of drug release in the sample (tissue proteinase B; pH 7.0, 1 h) | Percentage of drug release in the sample (tissue proteinase B; pH 7.0, 2 h) | Percentage of drug release in the sample (tissue proteinase B; pH 7.0, 3 h) | Percentage of drug release in the sample (tissue proteinase B; pH 7.0, 4 h) | further results |
| --- | --- | --- | --- | --- | --- | --- | --- | --- | --- | --- | --- | --- | --- | --- | --- | --- | --- | --- | --- | --- | --- |
| CC[C@@]1(O)C(=O)OCc2c1cc1n(c2=O)Cc2c-1nc1cc(F)c(C)c3c1c2[C@@H](NC(=O)COCN(CCS(C)(=O)=O)C(=O)OCc1ccc(NC(=O)[C@H](C)NC(=O)[C@@H](NC(=O)CCCCCN2C(=O)C=CC2=O)C(C)C)cc1)CC3 [LE14] | 15% | 96.93% | 98.35% | 99.01% | 99.21% | 99.32% | 97.39% | quickly enzymatically digested | 14.28% | 95.98% | 96.8% | 98.45% | 98.81% | 98.9% | 99% | 17.59% | 98.05% | 99.08% | 99.33% | 99.2% | Percentage of drug release in the sample (tissue proteinase B; pH 7.0, 5 h): 100%; Percentage of drug release in the sample (tissue proteinase B; pH 7.0, 6 h): 99.39% |
| CCc1c2c(nc3ccc(O)cc13)-c1cc3c(c(=O)n1C2)COC(=O)[C@]3(O)CC [SN-38, 7-ethyl-10-hydroxycamptothecin] |  |  |  |  |  |  |  |  |  |  |  |  |  |  |  |  |  |  |  |  | IC50 (SK-BR-3 cell line; read-out: IC50 (based on SN-38 equivalent) Before Enzyme Digestion): 7.13 nM; IC50 (SK-BR-3 cell line; after tissue proteinase B system, pH 5.0, 37° C., 4 hours, read-out: IC50 (based on SN-38 equivalent) After Enzyme Digestion): 7.32 nM |
| CC[C@@]1(O)C(=O)OCc2c1cc1n(c2=O)Cc2c-1nc1cc(F)c(C)c3c1c2[C@H](NC(=O)COCNC(=O)CNC(=O)[C@H](Cc1ccccc1)NC(=O)CNC(=O)CNC(=O)CCCCCN1C(=O)C=CC1=O)CC3 [GGFG-Dxd, reference compound] ({Hexanoyl(6-maleimido)}-GGFG[NHCH2OCH2CO]-X1) | 21.62% | 25% | 25.85% | 27.76% | 29.72% | 31.69% | 34.17% | slow speed of enzyme digestion | 23.58% | 24.8% | 27.02% | 29.29% | 31.37% | 33.05% | 35.95% | 22.98% | 26.53% | 29.52% | 31.95% | 34.78% | Percentage of drug release in the sample (tissue proteinase B; pH 7.0, 5 h): 36.17%; Percentage of drug release in the sample (tissue proteinase B; pH 7.0, 6 h): 38.25%; aggregation ratio when coupled with other antibodies [1]: high aggregation ratio; precipitation when coupled with other antibodies [1]: produces precipitation |
